Assay results: ChEMBL document CHEMBL1201862, “PubChem BioAssay data set” (2004)
Active and inactive are the calls of the source.

Key:
[1] = target: T1, Fructose-bisphosphate aldolase (Mycobacterium tuberculosis, UniProt P9WQA3); assay: Fluorescence-based biochemical high throughput dose response assay for inhibitors of the fructose-bisphosphate aldolase (FBA) of M. tuberculosis.; assay type: functional
T1 sequence (P9WQA3 whole entry): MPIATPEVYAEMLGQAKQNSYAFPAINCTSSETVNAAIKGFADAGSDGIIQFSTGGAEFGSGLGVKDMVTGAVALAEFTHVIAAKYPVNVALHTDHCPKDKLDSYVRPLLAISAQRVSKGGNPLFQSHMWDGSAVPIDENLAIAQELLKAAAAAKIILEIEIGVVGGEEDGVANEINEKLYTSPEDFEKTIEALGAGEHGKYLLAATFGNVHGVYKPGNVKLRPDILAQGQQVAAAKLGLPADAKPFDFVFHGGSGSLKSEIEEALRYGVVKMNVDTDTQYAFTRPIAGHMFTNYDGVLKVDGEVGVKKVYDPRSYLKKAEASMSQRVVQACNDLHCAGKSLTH

[2] = target: T2, DNA repair protein RAD52 homolog (Homo sapiens, UniProt P43351); assay type: functional, biochemical
T2 sequence (P43351 whole entry): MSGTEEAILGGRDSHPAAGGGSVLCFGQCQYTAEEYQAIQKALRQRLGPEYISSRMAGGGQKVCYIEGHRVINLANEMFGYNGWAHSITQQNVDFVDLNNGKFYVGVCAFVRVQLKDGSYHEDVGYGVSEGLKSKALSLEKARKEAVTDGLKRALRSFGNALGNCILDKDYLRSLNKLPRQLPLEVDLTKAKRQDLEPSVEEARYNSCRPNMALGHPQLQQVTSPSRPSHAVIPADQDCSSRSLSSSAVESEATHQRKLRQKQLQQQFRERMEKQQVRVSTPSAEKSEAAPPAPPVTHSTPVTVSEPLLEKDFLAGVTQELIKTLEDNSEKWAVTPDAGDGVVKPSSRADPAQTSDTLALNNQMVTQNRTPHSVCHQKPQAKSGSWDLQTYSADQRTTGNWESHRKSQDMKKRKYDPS

[3] = target: T3, DNA repair and recombination protein RAD54-like (Homo sapiens, UniProt Q92698); assay: inhibitors of human RAD54 branch migration, confirmation, biochemical, fluorescence, cherry-picked samples, dose series (AID 651657); assay type: functional
T3 sequence (Q92698 whole entry): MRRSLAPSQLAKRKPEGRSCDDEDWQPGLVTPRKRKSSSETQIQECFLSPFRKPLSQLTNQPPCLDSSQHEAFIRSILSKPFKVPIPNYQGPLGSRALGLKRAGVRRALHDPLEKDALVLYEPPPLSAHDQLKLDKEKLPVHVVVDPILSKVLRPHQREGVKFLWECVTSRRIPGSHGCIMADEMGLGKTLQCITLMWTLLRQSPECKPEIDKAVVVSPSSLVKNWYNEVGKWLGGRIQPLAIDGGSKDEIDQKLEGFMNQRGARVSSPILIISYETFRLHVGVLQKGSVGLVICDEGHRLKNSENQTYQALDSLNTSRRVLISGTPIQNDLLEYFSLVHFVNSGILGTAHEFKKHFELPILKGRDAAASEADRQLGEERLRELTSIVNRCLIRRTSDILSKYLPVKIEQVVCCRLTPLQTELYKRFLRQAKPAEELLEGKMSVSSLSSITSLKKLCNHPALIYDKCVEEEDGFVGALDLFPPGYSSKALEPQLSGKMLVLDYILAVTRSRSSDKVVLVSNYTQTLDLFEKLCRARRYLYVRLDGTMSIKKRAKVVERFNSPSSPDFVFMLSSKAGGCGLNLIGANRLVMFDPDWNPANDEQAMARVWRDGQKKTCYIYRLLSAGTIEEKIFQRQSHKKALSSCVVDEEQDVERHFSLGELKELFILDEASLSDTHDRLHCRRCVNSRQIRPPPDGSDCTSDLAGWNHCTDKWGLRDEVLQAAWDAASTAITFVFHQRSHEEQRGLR

[4] = tested on: Streptococcus sp. 'group A'; assay: growth inhibition of control SK(-) GAS strain, dose response, counter-screen for streptokinase expression inhibitor project, luminescence, kanamycin, BacTiterGlo, confirmation (AID 1900); assay type: functional, organism-based
[5] = HepG2 cell cytotoxicity, dose response, cytotoxicity control for Shn3 inhibitor project, CellTiter-Glo, cherry-picked (AID 624134); assay type: functional, cell-based
[6] = target: Luciferin 4-monooxygenase (Photinus pyralis, UniProt P08659); assay: firefly luciferase enzyme inhibitors, dose response, biochemical, luminescence (AID 1891)
Sequence of Luciferin 4-monooxygenase (P08659 whole entry): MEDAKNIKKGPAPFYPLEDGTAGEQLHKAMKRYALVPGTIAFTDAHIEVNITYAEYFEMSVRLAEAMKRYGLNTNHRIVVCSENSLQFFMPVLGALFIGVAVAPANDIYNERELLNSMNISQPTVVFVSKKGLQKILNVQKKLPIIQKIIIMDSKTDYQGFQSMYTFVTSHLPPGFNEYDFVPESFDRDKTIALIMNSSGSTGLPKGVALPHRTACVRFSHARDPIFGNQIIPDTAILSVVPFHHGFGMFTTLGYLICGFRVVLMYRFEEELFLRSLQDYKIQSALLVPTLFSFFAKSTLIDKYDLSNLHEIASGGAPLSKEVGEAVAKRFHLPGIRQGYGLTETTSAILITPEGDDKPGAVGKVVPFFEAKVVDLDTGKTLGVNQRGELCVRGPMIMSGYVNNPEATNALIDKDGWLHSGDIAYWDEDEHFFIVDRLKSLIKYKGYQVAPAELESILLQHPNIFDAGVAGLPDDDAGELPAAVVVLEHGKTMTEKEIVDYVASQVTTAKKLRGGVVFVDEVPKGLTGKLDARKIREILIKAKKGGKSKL

Large T antigen = Large T antigen (Simian virus 40, UniProt P03070); assay type: functional, Betapolyomavirus macacae;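 further: Confirmatory-stage PubChem screen for compounds that inhibit SV40 T antigen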
Sequence of Large T antigen (P03070 whole entry): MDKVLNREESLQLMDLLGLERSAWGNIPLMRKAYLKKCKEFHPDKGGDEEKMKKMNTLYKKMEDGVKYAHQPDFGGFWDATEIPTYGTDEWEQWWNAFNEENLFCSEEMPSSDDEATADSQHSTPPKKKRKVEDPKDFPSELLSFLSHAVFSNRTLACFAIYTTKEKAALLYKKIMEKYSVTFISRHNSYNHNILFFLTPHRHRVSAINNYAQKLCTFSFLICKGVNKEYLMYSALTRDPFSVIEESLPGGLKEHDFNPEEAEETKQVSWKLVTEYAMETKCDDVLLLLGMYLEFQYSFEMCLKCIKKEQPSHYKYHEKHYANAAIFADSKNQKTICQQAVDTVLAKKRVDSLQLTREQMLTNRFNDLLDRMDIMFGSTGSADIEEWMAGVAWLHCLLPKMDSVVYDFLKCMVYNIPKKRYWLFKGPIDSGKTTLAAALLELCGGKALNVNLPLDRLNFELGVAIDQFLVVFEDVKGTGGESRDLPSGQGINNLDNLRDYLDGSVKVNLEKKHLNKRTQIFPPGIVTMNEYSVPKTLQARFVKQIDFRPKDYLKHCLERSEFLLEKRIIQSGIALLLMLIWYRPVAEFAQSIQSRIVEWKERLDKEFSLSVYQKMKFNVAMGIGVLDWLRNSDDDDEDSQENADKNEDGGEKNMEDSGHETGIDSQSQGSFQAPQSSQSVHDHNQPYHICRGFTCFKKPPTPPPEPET

BJ [7] = assay: cytotoxicity toward BJ-TERT-LT-ST fibroblasts, dose response, cell-based, RAS-independent, luminescence (AID 1935); assay type: functional; conditions: Homo sapiens;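 further: BJ fibroblasts immortalized with TERT plus LT and ST oncogenes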
BJ [8] = assay: cytotoxicity toward Ras-transformed BJeLR fibroblasts, dose response, cell-based, alamar blue fluorescence, cherrypicked samples (AID 2631); assay type: functional; conditions: Homo sapiens;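 further: confirmatory dose-response assay in RAS-dependent BJ fibroblasts engineered with TERT, LT and ST, with cytotoxicity read by fluorescence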
Genome polyprotein = Genome polyprotein (dengue virus type 2, UniProt P29990); assay: Dengue-2 NS5 methyltransferase inhibitors, primary screen, biochemical, confirmation dose response (AID 588689); assay type: functional
Sequence of Genome polyprotein (P29990 2492-3391 limits assumed): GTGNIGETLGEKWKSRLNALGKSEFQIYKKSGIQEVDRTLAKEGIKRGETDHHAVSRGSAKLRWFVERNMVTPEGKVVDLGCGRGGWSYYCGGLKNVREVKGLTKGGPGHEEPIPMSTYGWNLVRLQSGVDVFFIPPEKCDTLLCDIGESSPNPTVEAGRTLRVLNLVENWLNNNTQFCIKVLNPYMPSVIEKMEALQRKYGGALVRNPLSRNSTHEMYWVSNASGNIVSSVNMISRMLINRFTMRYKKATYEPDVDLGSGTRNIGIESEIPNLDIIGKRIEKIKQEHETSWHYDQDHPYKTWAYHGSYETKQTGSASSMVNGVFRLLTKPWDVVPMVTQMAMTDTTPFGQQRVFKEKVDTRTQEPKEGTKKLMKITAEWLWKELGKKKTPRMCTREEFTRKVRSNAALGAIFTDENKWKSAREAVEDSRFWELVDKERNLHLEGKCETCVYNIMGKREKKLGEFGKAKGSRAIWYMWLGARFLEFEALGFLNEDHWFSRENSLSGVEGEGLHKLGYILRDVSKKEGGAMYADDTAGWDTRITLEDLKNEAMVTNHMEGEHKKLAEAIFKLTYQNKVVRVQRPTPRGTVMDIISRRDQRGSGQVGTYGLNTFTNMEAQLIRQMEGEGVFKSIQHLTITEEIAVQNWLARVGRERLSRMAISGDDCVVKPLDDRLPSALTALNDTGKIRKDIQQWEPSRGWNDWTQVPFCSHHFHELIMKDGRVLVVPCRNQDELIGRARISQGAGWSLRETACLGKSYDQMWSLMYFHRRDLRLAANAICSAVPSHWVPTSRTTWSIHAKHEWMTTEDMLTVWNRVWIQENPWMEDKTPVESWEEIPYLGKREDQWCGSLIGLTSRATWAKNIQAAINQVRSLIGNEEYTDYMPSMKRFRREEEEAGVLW

BJ [9] = assay: cytotoxicity toward BJ-TERT fibroblasts, dose response, cell-based, RAS-independent, luminescence (AID 1933); assay type: functional; conditions: Homo sapiens
Fatty acid synthase [10] = target: T4, Fatty acid synthase (Homo sapiens, UniProt P49327); assay: FAS thioesterase domain inhibitors, dose response, biochemical, endpoint fluorescence intensity, uHTS hits (AID 624327); assay type: functional;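 further: fluorescence from hydrolysis of an O-methyl fluorescein acyl ester substrate by the enzyme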
T4 sequence (P49327 whole entry, the tested form may be a part): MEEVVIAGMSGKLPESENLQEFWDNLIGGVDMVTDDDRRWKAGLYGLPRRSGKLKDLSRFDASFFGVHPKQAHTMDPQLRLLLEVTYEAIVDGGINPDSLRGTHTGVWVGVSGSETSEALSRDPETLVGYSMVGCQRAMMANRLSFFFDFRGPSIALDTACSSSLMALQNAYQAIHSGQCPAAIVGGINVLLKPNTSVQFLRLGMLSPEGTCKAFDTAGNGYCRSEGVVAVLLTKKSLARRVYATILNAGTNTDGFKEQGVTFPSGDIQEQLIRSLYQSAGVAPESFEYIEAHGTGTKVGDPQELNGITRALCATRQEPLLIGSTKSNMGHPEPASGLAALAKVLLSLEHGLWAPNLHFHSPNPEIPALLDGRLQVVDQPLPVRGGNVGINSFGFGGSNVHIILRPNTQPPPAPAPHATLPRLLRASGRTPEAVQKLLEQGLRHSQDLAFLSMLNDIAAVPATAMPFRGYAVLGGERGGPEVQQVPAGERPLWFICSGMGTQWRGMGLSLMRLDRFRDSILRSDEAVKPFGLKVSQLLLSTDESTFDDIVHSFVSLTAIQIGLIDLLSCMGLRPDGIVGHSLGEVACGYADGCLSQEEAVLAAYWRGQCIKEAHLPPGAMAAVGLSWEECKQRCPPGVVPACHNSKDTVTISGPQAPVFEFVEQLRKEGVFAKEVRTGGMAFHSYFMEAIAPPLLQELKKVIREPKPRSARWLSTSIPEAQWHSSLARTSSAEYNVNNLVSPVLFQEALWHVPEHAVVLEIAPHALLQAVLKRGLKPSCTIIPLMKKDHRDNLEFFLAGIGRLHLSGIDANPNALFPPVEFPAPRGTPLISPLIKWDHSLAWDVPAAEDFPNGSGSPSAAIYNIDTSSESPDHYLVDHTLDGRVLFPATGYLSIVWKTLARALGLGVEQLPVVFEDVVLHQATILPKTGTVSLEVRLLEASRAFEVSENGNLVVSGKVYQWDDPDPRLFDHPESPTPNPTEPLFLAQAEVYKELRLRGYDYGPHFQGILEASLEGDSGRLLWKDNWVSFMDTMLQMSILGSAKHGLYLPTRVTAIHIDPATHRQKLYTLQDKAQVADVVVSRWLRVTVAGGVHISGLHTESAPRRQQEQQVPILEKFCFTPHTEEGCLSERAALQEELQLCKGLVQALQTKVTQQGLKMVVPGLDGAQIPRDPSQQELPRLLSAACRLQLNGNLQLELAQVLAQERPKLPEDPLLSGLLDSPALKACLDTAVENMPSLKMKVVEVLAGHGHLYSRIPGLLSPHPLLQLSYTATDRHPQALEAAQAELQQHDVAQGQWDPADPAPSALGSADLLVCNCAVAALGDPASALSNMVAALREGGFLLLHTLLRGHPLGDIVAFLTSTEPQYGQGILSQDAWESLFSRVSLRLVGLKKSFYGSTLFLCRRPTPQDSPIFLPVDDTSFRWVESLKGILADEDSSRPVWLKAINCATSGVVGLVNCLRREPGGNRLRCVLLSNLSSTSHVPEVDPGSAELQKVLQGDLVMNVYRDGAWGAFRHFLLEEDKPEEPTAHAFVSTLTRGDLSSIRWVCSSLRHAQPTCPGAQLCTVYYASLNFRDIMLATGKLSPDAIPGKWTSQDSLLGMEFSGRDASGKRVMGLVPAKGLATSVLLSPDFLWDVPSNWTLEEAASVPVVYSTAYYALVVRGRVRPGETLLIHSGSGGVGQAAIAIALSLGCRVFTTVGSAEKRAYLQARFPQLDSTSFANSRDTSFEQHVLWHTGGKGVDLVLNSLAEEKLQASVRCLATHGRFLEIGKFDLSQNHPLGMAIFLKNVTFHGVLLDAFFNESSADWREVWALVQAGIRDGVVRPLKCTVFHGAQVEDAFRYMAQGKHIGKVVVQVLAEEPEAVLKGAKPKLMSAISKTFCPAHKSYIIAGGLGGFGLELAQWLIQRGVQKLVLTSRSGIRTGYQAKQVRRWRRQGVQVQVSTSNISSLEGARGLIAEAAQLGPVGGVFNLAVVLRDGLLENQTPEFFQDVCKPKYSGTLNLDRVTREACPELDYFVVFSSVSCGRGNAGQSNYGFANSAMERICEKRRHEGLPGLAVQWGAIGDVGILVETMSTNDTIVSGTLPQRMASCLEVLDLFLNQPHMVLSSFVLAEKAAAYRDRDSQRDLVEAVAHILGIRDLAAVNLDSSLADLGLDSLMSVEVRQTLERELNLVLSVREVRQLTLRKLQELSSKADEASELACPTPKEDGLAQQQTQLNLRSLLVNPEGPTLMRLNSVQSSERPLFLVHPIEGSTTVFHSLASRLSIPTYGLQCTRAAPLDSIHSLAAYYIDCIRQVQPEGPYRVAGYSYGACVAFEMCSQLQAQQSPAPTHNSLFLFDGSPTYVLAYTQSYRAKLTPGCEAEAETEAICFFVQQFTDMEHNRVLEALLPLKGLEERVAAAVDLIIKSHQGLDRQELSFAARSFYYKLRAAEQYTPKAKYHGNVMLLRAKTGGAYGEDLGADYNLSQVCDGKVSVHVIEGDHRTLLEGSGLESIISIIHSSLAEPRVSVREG

Streptococcus = assay: Group A Streptococcus viability loss, dose response, counter-screen for streptokinase expression inhibitor project, luminescence, BacTiterGlo (AID 1915); assay type: functional, organism-based;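 further: potency for reduction of bacterial viability or growth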
[11] = non-specific cell cytotoxicity, dose response, cytotoxicity control for PAX8 inhibitor project, plate reader, dry powder samples (AID 743021); assay type: functional, cell-based
[12] = Shn3 3'UTR reporter inhibitors, dose response, cell-based, Clone20 osteoblasts, firefly luciferase, cherry-picked (AID 624132); assay type: functional;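 further: firefly luciferase luminescence from reporter carrying the Shn3 3'UTR in osteoblasts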
[13] = target: T5, High affinity choline transporter 1 (Homo sapiens, UniProt Q9GZV3); assay: CHT inhibitors, dose response, cell-based, 5-point CRC, membrane potential dye (AID 504840); assay type: functional
T5 sequence (Q9GZV3 whole entry): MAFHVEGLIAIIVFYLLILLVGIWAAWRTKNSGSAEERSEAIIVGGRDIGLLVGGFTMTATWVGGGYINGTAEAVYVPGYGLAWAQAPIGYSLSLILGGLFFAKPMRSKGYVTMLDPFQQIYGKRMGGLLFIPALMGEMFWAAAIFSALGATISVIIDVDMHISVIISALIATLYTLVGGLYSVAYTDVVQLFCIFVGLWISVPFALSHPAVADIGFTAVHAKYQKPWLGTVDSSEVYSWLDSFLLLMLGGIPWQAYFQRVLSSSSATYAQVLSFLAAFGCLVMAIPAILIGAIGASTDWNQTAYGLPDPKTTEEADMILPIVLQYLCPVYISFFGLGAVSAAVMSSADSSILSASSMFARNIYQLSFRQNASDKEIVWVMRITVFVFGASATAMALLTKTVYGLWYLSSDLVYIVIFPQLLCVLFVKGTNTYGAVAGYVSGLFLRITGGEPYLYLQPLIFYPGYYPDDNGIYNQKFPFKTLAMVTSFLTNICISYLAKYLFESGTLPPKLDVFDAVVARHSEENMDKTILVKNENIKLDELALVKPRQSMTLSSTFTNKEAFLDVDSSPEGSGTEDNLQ

HEK293 = assay: inhibitors of LMP1-driven NF-kB reporter, dose response, cell-based, HEK293, luciferase, cherry-pick (AID 588343); assay type: functional; conditions: Homo sapiens
Fatty acid synthase [14] = target: T4, Fatty acid synthase; assay: FAS thioesterase domain inhibitors, dose response, biochemical, kinetic fluorescence intensity (AID 624326); assay type: functional;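 further: rate of fluorescence rise from hydrolysis of a fluorogenic O-methyl fluorescein ester substrate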
[15] = Luminescence Cell-Based Dose Confirmation HTS to Identify Inhibitors of Platelet Dense Granule Release. [Related pubchem assays: 1663 (Primary HTS), 1678 (Summary of Project)]; assay type: functional
Paired box protein Pax-8 = Paired box protein Pax-8 (Homo sapiens, UniProt Q06710); assay: inhibitors of PAX8-driven TPO luciferase reporter, dose response, RMG-I cells, cherry-pick (AID 687027); assay type: functional, cell-based;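 further: luciferase reporter driven by Pax8 target thyroperoxidase promoter measured by SteadyGlo luminescence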
Sequence of Paired box protein Pax-8 (Q06710 whole entry): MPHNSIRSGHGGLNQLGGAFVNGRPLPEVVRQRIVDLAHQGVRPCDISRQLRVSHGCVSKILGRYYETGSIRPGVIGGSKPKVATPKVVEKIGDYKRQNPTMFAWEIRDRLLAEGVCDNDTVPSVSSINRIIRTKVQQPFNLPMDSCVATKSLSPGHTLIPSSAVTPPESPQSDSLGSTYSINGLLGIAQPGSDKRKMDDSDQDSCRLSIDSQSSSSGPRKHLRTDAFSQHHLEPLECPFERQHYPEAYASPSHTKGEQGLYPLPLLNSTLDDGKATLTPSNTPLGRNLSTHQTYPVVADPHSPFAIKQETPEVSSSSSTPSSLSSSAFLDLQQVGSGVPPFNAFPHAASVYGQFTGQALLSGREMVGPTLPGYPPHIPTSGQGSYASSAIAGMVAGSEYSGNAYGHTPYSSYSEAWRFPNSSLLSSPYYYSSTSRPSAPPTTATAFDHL

[16] = control 3'UTR Renilla luciferase suppression, dose response, counter-screen for Shn3 inhibitor project, cell-based, Clone20-Shn3RL, cherry-picked (AID 624133); assay type: functional
Vero = Vero cell cytotoxicity, cytotoxicity control for flavivirus capping enzyme inhibitors (AID 588742); assay type: functional; conditions: Chlorocebus sabaeus
Streptokinase A = target: T6, Streptokinase A (Streptococcus pyogenes serotype M1, UniProt P10520); assay: S. pyogenes streptokinase expression inhibitors, potency, dose response, plasminogen activation absorbance, OD405 (AID 1914); assay type: functional, Streptococcus pyogenes M1 GAS;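 further: secreted streptokinase activity via plasminogen activation per viability signal from cell pellet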
T6 sequence (P10520 whole entry): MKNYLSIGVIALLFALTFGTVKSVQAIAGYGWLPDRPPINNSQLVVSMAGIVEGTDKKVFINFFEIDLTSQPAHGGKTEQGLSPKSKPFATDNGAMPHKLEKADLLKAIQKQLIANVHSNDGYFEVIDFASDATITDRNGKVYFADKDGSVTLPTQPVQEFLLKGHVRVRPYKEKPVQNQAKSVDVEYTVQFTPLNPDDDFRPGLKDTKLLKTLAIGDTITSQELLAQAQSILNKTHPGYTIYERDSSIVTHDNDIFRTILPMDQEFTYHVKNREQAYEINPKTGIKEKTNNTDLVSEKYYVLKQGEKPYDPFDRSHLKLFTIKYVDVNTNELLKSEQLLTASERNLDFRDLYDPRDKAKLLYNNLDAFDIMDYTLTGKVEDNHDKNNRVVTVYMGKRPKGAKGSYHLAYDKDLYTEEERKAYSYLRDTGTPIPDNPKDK

[17] = cytotoxicity toward DRD oncogenic fibroblasts, dose response, cell-based, non-viral oncogenic, luminescence (AID 1934); assay type: functional; conditions: Homo sapiens
BJ [18] = assay: cells; assay type: functional, cell-based; conditions: Homo sapiens
[19] = HepG2 cell cytotoxicity, dose response, cytotoxicity control, plate reader, cherry-pick, antagonist series (AID 743416); assay type: functional, cell-based
[20] = HEK293 cell cytotoxicity, dose response, cytotoxicity control, plate reader, cherry-picked samples (AID 743446); assay type: functional, cell-based
[21] = LGR2 antagonists, dose response, cell-based, HEK293, CRE-luciferase reporter, cherry pick, set 2 (AID 743343); assay type: functional;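 further: transfected cells were stimulated with diluted bursicon conditioned medium after compound addition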
[22] = A549 cell cytotoxicity, dose response, cytotoxicity control, plate reader, cherry-pick, antagonist series (AID 743412); assay type: functional, cell-based
[23] = MC4R antagonists, dose response, counter-screen for LGR2 antagonist project, cell-based, plate reader, cherry pick (AID 743444); assay type: functional;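 further: transfected HEK 293 cells stimulated with alpha-MSH peptide; potency of inhibitors of the alpha-MSH evoked signal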
cells [24] = assay type: functional, cell-based
cells [25] = assay type: functional, cell-based; remark: listed apart in the source

Cc1cc2c(SCc3ccccc3Cl)nc(N)nc2nc1C
IC50 [1]: 0.833 µM (active)

COc1ccc(CCNC(=O)c2cc3c(=O)n4ccccc4nc3n(CCCN3CCOCC3)c2=N)cc1OC
AC50 [2]: 11.5 µM (active) | AC50 [3]: 31 µM (active)

COC(=O)CN(c1ccc2c(c1)OCCO2)S(=O)(=O)c1ccccc1
IC50 [1]: > 9.99 µM (inactive)

O=[N+]([O-])c1c(Nc2cccc(O)c2)cc(Cl)c2nonc12
EC50 [4]: 7.24 µM (active) | AC50 [5]: 12.5 µM (active) | EC50 [6]: > 112 µM (not active) | IC50 (Large T antigen): 47.8 µM (active) | EC50 (BJ [7]): 4.25 µM (inconclusive) | EC50 (BJ [8]): 0.585 µM (active) | IC50 (Genome polyprotein): 26.2 µM (active) | EC50 (BJ [9]): 2.6 µM (active) | IC50 (Fatty acid synthase [10]): 5.29 µM (active) | EC50 (Streptococcus): 10.5 µM (active) | AC50 [11]: 22.6 µM (active) | AC50 [12]: 0.683 µM (active) | IC50 [13]: 10.5 µM (active) | AC50 (HEK293): 3.64 µM (active) | IC50 (Fatty acid synthase [14]): 3.24 µM (active) | EC50 [15]: 4.14 µM (active) | AC50 (Paired box protein Pax-8): 7.24 µM (active) | AC50 [16]: 5.66 µM (active) | CC50 (Vero): 33.7 µM (active) | EC50 (Streptokinase A): 5.58 µM (active) | EC50 [17]: 5.13 µM (active) | EC50 (BJ [18]): 5.62 µM (inconclusive)

COc1ccc(-c2cc(-c3ccccc3)c(C#N)c(SCC(=O)O)n2)cc1
IC50 [1]: 1.35 µM (active)

COc1cc(-c2cnc3c(NC=O)cc(-c4cccc(C(=O)NCCN(C)C)c4)cn23)cc(OC)c1OC
AC50 [2]: 3.07 µM (active) | AC50 [3]: 8.57 µM (active)

N#C[C@@H]1[C@H](c2ccc(C#Cc3ccccc3F)cc2)[C@H](CO)N1C(=O)C1CCCCC1
AC50 [19]: 2.67 µM (active) | AC50 [20]: 14.3 µM (active) | AC50 [21]: 20 µM (active) | AC50 [22]: 17.6 µM (active) | AC50 [23]: 27.5 µM (active)

O=C(Cn1cnc2ccccc21)N/N=C/c1cccs1
EC50 (cells [24]): > 29.9 µM (inactive) | IC50 (cells [25]): > 29.9 µM (inactive)

O=C(CNC(=O)c1cccc(F)c1)N/N=C/C=C/c1ccccc1
EC50 (cells [24]): > 29.9 µM (inactive) | IC50 (cells [25]): > 29.9 µM (inactive)
